According to patent US20220213047A1, “CARBONIC ANHYDRASE INHIBITORS FOR TREATMENT OF NEISSERIA GONORRHOEAE INFECTION” (Purdue Research Foundation, priority 2021, published 2022):
≈ marks a conversion by molar mass, not a printed value. Entries after “also recorded” stand apart in the source; their conditions may differ.

Experiments:
Bacteroides = experiment: MIC50 against pathogenic and commensal bacteria: Bacteroides; format: cell-based; conditions: Bacteroides (9 strains); normal
Excerpt: (§1) We have shown that CAIs display a narrow-spectrum of activity (Table 6). We have previously shown that CAIs have potential as anti-enterococcal agents for decolonization of the gut and treating systemic vancomycin-resistant enterococci (VRE) infections without affecting commensal strains common in the human microbiome or other pathogenic bacteria. […] The extremely narrow spectrum of this class of inhibitors would be a positive for clinical use as the molecules: 1) would not have deleterious effects on normal microbiota, and 2) would have less opportunity for resistance to arise to other important pathogenic strains aside from VRE.

E. coli = experiment: MIC50 against pathogenic and commensal bacteria: E. coli; format: cell-based; conditions: Escherichia coli; E. coli (8 strains); normal
Excerpt: as §1

[1] = system: intracellular N. gonorrhoeae; experiment: Intracellular clearance of N. gonorrhoeae in infected endocervical cells (End1/E6E7); format: cell-based; conditions: 5×MIC, 24 hours
Excerpt: Intracellular clearance of N. gonorrhoeae—N. gonorrhoeae is known to invade epithelial cells of the genital tract and cross the epithelial barrier into the subepithelial space^59. Previous studies have shown that N. gonorrhoeae can survive inside host cells and pass epithelial cell layers (a key step in causing disseminated infections)^60,61. Therefore, a drug candidate must also be able to kill intracellular N. gonorrhoeae in order to be an effective therapeutic. Also, we were concerned that CAIs have reduced activity in high-CO2 conditions and may not be suitable to treat intracellular infection. Thus, we examined CAIs ability to reduce the burden of intracellular N. gonorrhoeae present in infected endocervical cells^56.

E. coli TolC mutant = experiment: MIC50 against pathogenic and commensal bacteria: E. coli TolC mutant; format: cell-based; conditions: Escherichia coli
Excerpt: as §1

N. gonorrhoeae [2] = experiment: MIC against N. gonorrhoeae clinical isolates, normal and CO2 conditions; format: cell-based; conditions: Neisseria gonorrhoeae
Experimental: (§2) These tests were performed in normal culture conditions with standard CO2 levels and in CO2 (5% in incubator) conditions.

S. aureus = experiment: MIC50 against pathogenic and commensal bacteria: S. aureus; format: cell-based; conditions: Staphylococcus aureus; S. aureus (12 strains); normal
Excerpt: as §1

Bifidobacterium sp = experiment: MIC50 against pathogenic and commensal bacteria: Bifidobacterium sp; format: cell-based; conditions: Bifidobacterium sp (18 strains); normal
Excerpt: as §1

N. gonorrhoeae [3] = experiment: Multi-step resistance selection; format: cell-based; conditions: over ten passages
Excerpt: Frequency of mutation—multi-step mutation—We investigated N. gonorrhoeae's ability to develop resistance to CAIs using the multi-step resistance selection experiment^58.
N. gonorrhoeae cultures that grew at the highest concentrations of the compound are used as an inoculum for the subsequent culture.

Enterococcus = experiment: MIC50 against pathogenic and commensal bacteria: Enterococcus; format: cell-based; conditions: Enterococcus (49 strains); normal
Excerpt: as §1

L. gasseri = experiment: MIC50 against pathogenic and commensal bacteria: L. gasseri; format: cell-based; conditions: Lactobacillus gasseri; L. gasseri (4 strains); normal
Excerpt: as §1

N. gonorrhoeae [4] = experiment: MIC by agar dilution on a larger panel of N. gonorrhoeae strains; format: cell-based, Neisseria gonorrhoeae; conditions: for MIC: Neisseria gonorrhoeae, read-out: MIC
Experimental: as §2

CCOc1ccc2nc(S(N)(=O)=O)sc2c1 [Ethoxzolamide]
MIC50 (Bacteroides): > 256 µg/mL
MIC50 (E. coli): > 256 µg/mL
reduction in N. gonorrhoeae inside infected endocervical cells [1]: 5.8 log10
MIC50 (E. coli TolC mutant): > 256 µg/mL
MIC (N. gonorrhoeae [2]; N. gonorrhoeae 178, Non CO2 environment): ≤ 0.5 µg/mL
MIC (N. gonorrhoeae [2]; N. gonorrhoeae 178, normal growth environment (with CO2)): > 64 µg/mL
MIC (N. gonorrhoeae [2]; N. gonorrhoeae 181, Non CO2 environment): ≤ 0.5 µg/mL
MIC (N. gonorrhoeae [2]; N. gonorrhoeae 181, normal growth environment (with CO2)): > 64 µg/mL
MIC (N. gonorrhoeae [2]; N. gonorrhoeae 194, Non CO2 environment): ≤ 0.5 µg/mL
MIC (N. gonorrhoeae [2]; N. gonorrhoeae 194, normal growth environment (with CO2)): > 64 µg/mL
MIC50 (S. aureus): > 256 µg/mL
MIC50 (Bifidobacterium sp): > 256 µg/mL
increase in MIC (N. gonorrhoeae [3]): no increase
MIC50 (Enterococcus): 4 µg/mL (≈ 15.5 µM)
MIC50 (L. gasseri): > 256 µg/mL
activity against N. gonorrhoeae under CO2 conditions (N. gonorrhoeae [4]; CO2 conditions versus standard conditions, listed as EZM): did not maintain any activity; also recorded: significant reduction of activity
MIC (N. gonorrhoeae [4]; N. gonorrhoeae 165, CO2 (5% CO2 containing air)): > 128 µg/mL
MIC (N. gonorrhoeae [4]; N. gonorrhoeae 166, CO2 (5% CO2 containing air)): > 128 µg/mL
MIC (N. gonorrhoeae [4]; N. gonorrhoeae 166, Non CO2 (ambient air)): 0.06 µg/mL (≈ 0.232 µM)
MIC (N. gonorrhoeae [4]; N. gonorrhoeae 167, CO2 (5% CO2 containing air)): 64 µg/mL (≈ 248 µM)
MIC (N. gonorrhoeae [4]; N. gonorrhoeae 167, Non CO2 (ambient air)): 0.25 µg/mL (≈ 0.968 µM)
MIC (N. gonorrhoeae [4]; N. gonorrhoeae 170, CO2 (5% CO2 containing air)): > 128 µg/mL
MIC (N. gonorrhoeae [4]; N. gonorrhoeae 170, Non CO2 (ambient air)): 0.06 µg/mL (≈ 0.232 µM)
MIC (N. gonorrhoeae [4]; N. gonorrhoeae 171, CO2 (5% CO2 containing air)): 64 µg/mL (≈ 248 µM)
MIC (N. gonorrhoeae [4]; N. gonorrhoeae 173, CO2 (5% CO2 containing air)): 128 µg/mL (≈ 496 µM)
MIC (N. gonorrhoeae [4]; N. gonorrhoeae 174, CO2 (5% CO2 containing air)): > 128 µg/mL
MIC (N. gonorrhoeae [4]; N. gonorrhoeae 175, CO2 (5% CO2 containing air)): > 128 µg/mL
MIC (N. gonorrhoeae [4]; N. gonorrhoeae 175, Non CO2 (ambient air)): 0.25 µg/mL (≈ 0.968 µM)
MIC (N. gonorrhoeae [4]; N. gonorrhoeae 176, CO2 (5% CO2 containing air)): 128 µg/mL (≈ 496 µM)
MIC (N. gonorrhoeae [4]; N. gonorrhoeae 176, Non CO2 (ambient air)): 0.25 µg/mL (≈ 0.968 µM)
MIC (N. gonorrhoeae [4]; N. gonorrhoeae 177, CO2 (5% CO2 containing air)): 16 µg/mL (≈ 61.9 µM)
MIC (N. gonorrhoeae [4]; N. gonorrhoeae 177, Non CO2 (ambient air)): 0.5 µg/mL (≈ 1.94 µM)
MIC (N. gonorrhoeae [4]; N. gonorrhoeae 178, CO2 (5% CO2 containing air)): > 128 µg/mL
MIC (N. gonorrhoeae [4]; N. gonorrhoeae 178, Non CO2 (ambient air)): 0.06 µg/mL (≈ 0.232 µM)
MIC (N. gonorrhoeae [4]; N. gonorrhoeae 179, CO2 (5% CO2 containing air)): > 128 µg/mL
MIC (N. gonorrhoeae [4]; N. gonorrhoeae 179, Non CO2 (ambient air)): 0.25 µg/mL (≈ 0.968 µM)
MIC (N. gonorrhoeae [4]; N. gonorrhoeae 180, CO2 (5% CO2 containing air)): > 128 µg/mL
MIC (N. gonorrhoeae [4]; N. gonorrhoeae 181, CO2 (5% CO2 containing air)): 64 µg/mL (≈ 248 µM)
MIC (N. gonorrhoeae [4]; N. gonorrhoeae 181, Non CO2 (ambient air)): 0.25 µg/mL (≈ 0.968 µM)
MIC (N. gonorrhoeae [4]; N. gonorrhoeae 182, CO2 (5% CO2 containing air)): 64 µg/mL (≈ 248 µM)
MIC (N. gonorrhoeae [4]; N. gonorrhoeae 182, Non CO2 (ambient air)): 0.25 µg/mL (≈ 0.968 µM)
MIC (N. gonorrhoeae [4]; N. gonorrhoeae 183, CO2 (5% CO2 containing air)): 32 µg/mL (≈ 124 µM)
MIC (N. gonorrhoeae [4]; N. gonorrhoeae 184, CO2 (5% CO2 containing air)): 32 µg/mL (≈ 124 µM)
MIC (N. gonorrhoeae [4]; N. gonorrhoeae 184, Non CO2 (ambient air)): 0.25 µg/mL (≈ 0.968 µM)
